Reference: ChEMBL document CHEMBL1649234, “Antimicrobial activities of piperacillin-tazobactam against Haemophilus influenzae isolates, including beta-lactamase-negative ampicillin-resistant and beta-lactamase-positive amoxicillin-clavulanate-resistant isolates, and mutations in their quinolone resistance-determining regions” (2009)
Converted amounts (≈) assume the structure as drawn.

Key:
Type in all cases: functional
[1] = test system: Haemophilus influenzae; assay: Antimicrobial activity against beta-lactamase negative ampicillin-resistant Haemophilus influenzae by broth microdilution method in presence of beta-lactamase inhibitor clavulanic acid
[2] = test system: Haemophilus influenzae; assay: Antimicrobial activity against beta-lactamase negative ampicillin-resistant Haemophilus influenzae assessed as susceptible isolates by broth microdilution method in presence of beta-lactamase inhibitor clavulanic acid
[3] = test system: Haemophilus influenzae; assay: Antimicrobial activity against beta-lactamase positive (amoxicillin)clavulanate-resistant Haemophilus influenzae by broth microdilution method in presence of beta-lactamase inhibitor clavulanic acid
[4] = test system: Haemophilus influenzae; assay: Antimicrobial activity against beta-lactamase positive (amoxicillin)clavulanate-resistant Haemophilus influenzae assessed as susceptible isolates by broth microdilution method in presence of beta-lactamase inhibitor clavulanic acid
[5] = test system: Haemophilus influenzae; assay: Antimicrobial activity against beta-lactamase negative ampicillin-susceptible Haemophilus influenzae harboring […] mutant gene by broth microdilution method in presence of beta-lactamase inhibitor clavulanic acid
[6] = test system: Haemophilus influenzae; assay: Antimicrobial activity against beta-lactamase negative ampicillin-susceptible Haemophilus influenzae harboring […] mutant gene assessed as susceptible isolates by broth microdilution method in presence of beta-lactamase inhibitor clavulanic acid
[7] = test system: Haemophilus influenzae; assay: Antimicrobial activity against beta-lactamase-positive ampicillin-resistant Haemophilus influenzae harboring fst1 mutant gene by broth microdilution method in presence of beta-lactamase inhibitor clavulanic acid
[8] = test system: Haemophilus influenzae; assay: Antimicrobial activity against beta-lactamase-positive ampicillin-resistant Haemophilus influenzae harboring […] mutant gene assessed as susceptible isolates by broth microdilution method in presence of beta-lactamase inhibitor clavulanic acid
[9] = test system: Haemophilus influenzae; assay: Antimicrobial activity against beta-lactamase negative ampicillin-resistant -Haemophilus influenzae by broth microdilution method
[10] = test system: Haemophilus influenzae; assay: Antimicrobial activity against beta-lactamase negative ampicillin-resistant Haemophilus influenzae by broth microdilution method in presence of beta-lactamase inhibitor Sulbactam
[11] = test system: Haemophilus influenzae; assay: Antimicrobial activity against beta-lactamase negative ampicillin-resistant Haemophilus influenzae assessed as susceptible isolates by broth microdilution method
[12] = test system: Haemophilus influenzae; assay: Antimicrobial activity against beta-lactamase negative ampicillin-resistant Haemophilus influenzae assessed as susceptible isolates by broth microdilution method in presence of beta-lactamase inhibitor Sulbactam
[13] = test system: Haemophilus influenzae; assay: Antimicrobial activity against beta-lactamase positive (amoxicillin)clavulanate-resistant Haemophilus influenzae by broth microdilution method
[14] = test system: Haemophilus influenzae; assay: Antimicrobial activity against beta-lactamase positive (amoxicillin)clavulanate-resistant Haemophilus influenzae by broth microdilution method in presence of beta-lactamase inhibitor Sulbactam
[15] = test system: Haemophilus influenzae; assay: Antimicrobial activity against beta-lactamase positive (amoxicillin)clavulanate-resistant Haemophilus influenzae assessed as susceptible isolates by broth microdilution method
[16] = test system: Haemophilus influenzae; assay: Antimicrobial activity against beta-lactamase positive (amoxicillin)clavulanate-resistant Haemophilus influenzae assessed as susceptible isolates by broth microdilution method in presence of beta-lactamase inhibitor Sulbactam
[17] = test system: Haemophilus influenzae; assay: Antimicrobial activity against beta-lactamase negative ampicillin-susceptible Haemophilus influenzae harboring […] mutant gene by broth microdilution method
[18] = test system: Haemophilus influenzae; assay: Antimicrobial activity against beta-lactamase negative ampicillin-susceptible Haemophilus influenzae harboring […] mutant gene by broth microdilution method in presence of beta-lactamase inhibitor Sulbactam
[19] = test system: Haemophilus influenzae; assay: Antimicrobial activity against beta-lactamase negative ampicillin-susceptible Haemophilus influenzae harboring […] mutant gene assessed as susceptible isolates by broth microdilution method
[20] = test system: Haemophilus influenzae; assay: Antimicrobial activity against beta-lactamase negative ampicillin-susceptible Haemophilus influenzae harboring […] mutant gene assessed as susceptible isolates by broth microdilution method in presence of beta-lactamase inhibitor Sulbactam
[21] = test system: Haemophilus influenzae; assay: Antimicrobial activity against beta-lactamase-positive ampicillin-resistant Haemophilus influenzae harboring fst1 mutant gene by broth microdilution method
[22] = test system: Haemophilus influenzae; assay: Antimicrobial activity against beta-lactamase-positive ampicillin-resistant Haemophilus influenzae harboring fst1 mutant gene by broth microdilution method in presence of beta-lactamase inhibitor Sulbactam
[23] = test system: Haemophilus influenzae; assay: Antimicrobial activity against beta-lactamase-positive ampicillin-resistant Haemophilus influenzae harboring fst1 mutant gene assessed as susceptible isolates by broth microdilution method
[24] = test system: Haemophilus influenzae; assay: Antimicrobial activity against beta-lactamase-positive ampicillin-resistant Haemophilus influenzae harboring […] mutant gene assessed as susceptible isolates by broth microdilution method in presence of beta-lactamase inhibitor Sulbactam

## CC1(C)S[C@@H]2[C@H](NC(=O)[C@H](N)c3ccc(O)cc3)C(=O)N2[C@H]1C(=O)O [AMOXICILLIN]
[1]
  MIC50: 8 µg/mL
  MIC90: 8 µg/mL
[2]
  Activity: 27%
[3]
  MIC: 8 µg/mL
  MIC50: 8 µg/mL
  MIC90: 8 µg/mL
[4]
  Activity: 0%
[5]
  MIC50: 0.5 µg/mL
  MIC90: 1 µg/mL
[6]
  Activity: 100%
[7]
  MIC: 0.5 µg/mL
  MIC50: 0.5 µg/mL
  MIC90: 1 µg/mL
[8]
  Activity: 100%

## CC1(C)S[C@@H]2[C@H](NC(=O)[C@H](N)c3ccccc3)C(=O)N2[C@H]1C(=O)O [AMPICILLIN]
[9]
  MIC50: 4 µg/mL (≈ 11.4 µM)
  MIC90: ≥ 8 µg/mL
[10]
  MIC50: 4 µg/mL
  MIC90: 8 µg/mL
[11]
  Activity: 0%
[12]
  Activity: 22%
[13]
  MIC: ≥ 8 µg/mL
  MIC50: ≥ 8 µg/mL
  MIC90: ≥ 8 µg/mL
[14]
  MIC: 8 µg/mL
  MIC50: 8 µg/mL
  MIC90: 16 µg/mL
[15]
  Activity: 0%
[16]
  Activity: 0%
[17]
  MIC50: 0.25 µg/mL (≈ 0.715 µM)
  MIC90: 0.5 µg/mL (≈ 1.43 µM)
[18]
  MIC50: 0.5 µg/mL
  MIC90: 0.5 µg/mL
[19]
  Activity: 100%
[20]
  Activity: 100%
[21]
  MIC50: ≥ 8 µg/mL
  MIC90: ≥ 8 µg/mL
[22]
  MIC: 0.5 µg/mL
  MIC50: 0.25 µg/mL
  MIC90: 0.5 µg/mL
[23]
  Activity: 0%
[24]
  Activity: 75%

## CO/N=C(\C(=O)N[C@@H]1C(=O)N2C(C(=O)O)=C(CSc3nc(=O)c(O)nn3C)CS[C@H]12)c1csc(N)n1 [CEFTRIAXONE]
[9]
  MIC50: 0.25 µg/mL (≈ 0.451 µM)
  MIC90: 0.25 µg/mL (≈ 0.451 µM)
[11]
  Activity: 100%
[13]
  MIC50: 0.12 µg/mL
  MIC90: 0.25 µg/mL
[15]
  Activity: 100%
